For test [1], the system named is LTB4 Synthesis. As to the kind of experiment: Reverse Passive Arthus Reaction (pleurisy, LTB4 in pleural exudate). As to conditions: for ED50: Rattus norvegicus, po, ED50 printed in parentheses; for ED50 / % Inhibition of LTB4: standard drugs; for % Inhibition LTB4 Synthesis: 25 mg/kg p.o. It counts as in vivo, male Lewis rats. On the procedure: 3. Reverse Passive Arthus Reaction
A reverse passive Arthus reaction is induced in the pleural cavity of male Lewis rats (150°-200 g; fasted overnight prior to use) by the intravenous administration of bovine serum albumin (BSA; 4 mg/0.2 ml) followed 30 minutes later by the injection of rabbit anti-BSA (1 mg/0.2 ml; lyophilized IgG fraction; Organon Teknika, West Chester, Pa.) into the right pleural space under halothane anesthesia. Drugs or vehicle (0.5% Tween-80) control are administered orally in a volume of 1 ml/100 g body weight at 1 hour prior to the anti-BSA. Animals are sacrificed at either the time of peak eicosanoid production (i.e. 5 minutes after anti-BSA for immunoreactive TxB2, 10 minutes for immunoreactive LTB4, 20 minutes for immunoreactive LTC4) or at the time of peak neutrophil infiltration (4 hours after anti-BSA) by CO2 inhalation. The pleural cavity is then exposed, the fluid exudate removed by gentle vacuum aspiration and the volume of exudate is recorded. For the determination of cellular infiltration, the pleural cavity is rinsed with 3 ml of 0.1% EDTA in sterile saline, and the recovered wash is pooled with the exudate. Cell number is determined on a model ZBI Coulter counter. For determination of eicosanoid production, undiluted pleural exudate is microfuged and the supernatant is extracted with ethanol (8-10 times volume). Extracts are either stored at -20° C., or are evaporated to dryness under a stream of N2 and reconstituted in radioimmunoassay (RIA) buffer.
Eicosanoids are quantitated by RIA according to the procedure specified by the RIA kit manufacturer (Advanced Magnetics, Cambridge, MA). Briefly, 100 μl of ^3 H-labeled eicosanoid and 100 μl of specific antibody ,are sequentially added to 100 μl of extracted pleural exudate in BGG-phosphate buffer which contains 0.01M phosphate, 0.1% bovine gamma globulin and 0.1% sodium azide at pH 7.0. Antibody-bound eicosanoid is separated from unbound eicosanoid by the addition of 750 μl of dextran (0.4%)-coated charcoal (Norit A) containing 0.1% sodium azide. The mixture is centrifuged at 2000 RPM at 5° C. for 15 minutes to pellet the charcoal and adsorbed unbound eicosanoid. Antibody-bound labeled eicosanoid is quantitated by counting in a liquid scintillation counter, and is correlated to concentration by a standard curve.

The test system of test [2] is Lipoxygenase. As to the kind of experiment: Ex-Vivo Measurement of Lipoxygenase Inhibition in Orally Dosed Rats (LTB4 in A23187-stimulated blood). Set-up: species or system Male Sprague Dawley rats. The note with it: ex vivo rat, p.o., pretreatment 3 hr. On the procedure:
2. […] After an interval of 3 or 6 hours, the rats were anesthetized with metofane (n =4/group) and blood collected in heparinized tubes. White blood cell counts and differentials were made. One ml of blood from each animal was placed in a 5 ml plastic tube in a shaker bath at 37° C. A23187 at a final concentration of 10 μM was added to the blood and the blood vortexed and incubated for 15 min at 37° C. with gentle shaking. Incubation was terminated by vortexing sample and centrifuging immediately at 1200 xG for 15 min at 4° C. The plasma was transferred to 15 ml plastic tubes each containing 8 ml of methanol to precipitate protein followed by vortexing. The samples were stored at -70° C. overnight and the next day the samples were centrifuged at 800 xG for 15 min to pellet the precipitate. The samples were dried in a Savant SpeedVac Concentrator Model SVC 200H and reconstituted to the original volume with cold RIA or ELISA buffer. The reconstituted samples were stored at -70° C. until assayed. The assay for LTB4 was perforated according to the directions of the [^3 H]RIA kit or ELISA kit (Seragen). The total metabolite level in 1 ml of blood is calculated and reported as ng/10^6 neutrophils. Significance is determined by a one-way analysis of variance with LSD comparisons to control (p<0.05).

In test [3] the target is T1, 5-Lipoxygenase (Homo sapiens, UniProt P09917).
T1 construct: endogenous in cells; host or cells: whole blood of male human donors (results per 10^6 neutrophils)
T1 sequence (P09917 1-674): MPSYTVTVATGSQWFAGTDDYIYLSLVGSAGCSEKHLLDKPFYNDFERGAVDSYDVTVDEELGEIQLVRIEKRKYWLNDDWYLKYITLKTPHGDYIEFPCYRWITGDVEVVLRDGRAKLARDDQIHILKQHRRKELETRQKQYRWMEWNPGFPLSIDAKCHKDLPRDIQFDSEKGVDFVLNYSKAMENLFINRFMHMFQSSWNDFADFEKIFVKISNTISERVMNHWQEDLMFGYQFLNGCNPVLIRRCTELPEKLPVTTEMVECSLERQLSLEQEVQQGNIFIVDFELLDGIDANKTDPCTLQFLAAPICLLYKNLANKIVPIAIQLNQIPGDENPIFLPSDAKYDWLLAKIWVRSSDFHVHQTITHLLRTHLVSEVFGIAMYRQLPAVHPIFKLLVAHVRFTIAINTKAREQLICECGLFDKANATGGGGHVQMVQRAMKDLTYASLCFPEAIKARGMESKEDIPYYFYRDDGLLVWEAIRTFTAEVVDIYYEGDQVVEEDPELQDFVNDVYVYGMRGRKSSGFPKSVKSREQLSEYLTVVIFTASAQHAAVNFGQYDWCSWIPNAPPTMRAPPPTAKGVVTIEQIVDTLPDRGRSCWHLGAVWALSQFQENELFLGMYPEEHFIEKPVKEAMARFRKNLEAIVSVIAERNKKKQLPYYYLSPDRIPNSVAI
Briefly: Inhibition of 5-Lipoxygenase in Human Whole Blood (ionophore A23187-stimulated LTB4). The test is classed as cell-based. On the procedure:
1. Inhibition of 5-Lipoxygenase in Human Whole Blood
Blood is obtained in 50-100 ml quantities from male donors. White blood cell counts and differentials are made. Two ml of blood are placed in a 15 ml polypropylene test tube. Test compounds are solubilized in dimethylsulfoxide and diluted in 1:10 in 10% bovine serum albumin in phosphate buffered saline, pH 7.4 resulting in a final dimethylsulfoxide concentration of 0.1% in the blood. Then, solutions of test compounds are added to the blood in a shaking water bath at 37° C. for 10 minutes prior to the addition of 30 μM calcium ionophore (A23187, Sigma). After ionophore administration, whole blood samples are mixed and incubated for 20 minutes at 37° C. in a shaking water bath. Incubation is terminated by placing samples in an ice bath and immediately adding ethylene glycol-bis-(β-aminoethyl ether)-N, N,N',N'-tetraacetic acid (10 mM). Samples are mixed and centrifuged at 1200×g for 15 minutes at […]. Preparation of samples for evaluation by RIA or ELISA is carded out by the following protocol. Plasma is removed from sample tubes, placed in 15 ml polypropylene test tubes containing 8 ml methanol, and then vortexed to precipitate protein. Samples are stored at -70° C. overnight. The next day, samples are centrifuged at 200×g for 15 minutes at 4° C. to pellet the precipitate. Samples are dried in a Savant SpeedVac Concentrator, Model SVC 200H, reconstituted to original volume with ice cold RIA or ELISA buffer, and stored at -70° C. until assayed. The assay for eicosanoids (LTB4, TxB2, and PGE2) is performed as described by the manufacturer of the [^3 H]-RIA kit or ELISA kit (LTB4 -Amersham, TxB2 and PGE2 - Caymen Chemical).
The total eicosanoid level in 2 ml of blood is calculated and reported as ng/10^6 neutrophils. Significance is determined by a one-way analysis of variance with least significant difference (LSD) comparisons to control (p≤0.05) and IC50 's (μM) are determined by regression analysis (Finney, 1978). Drug effects are expressed as percent change from control values.

Consider `NC1=NN(c2cccc(C(F)(F)F)c2)CC1` [BW755C, reference compound], for which, in test [1], the ED50 came out at 23 mg/kg.

Consider `O=C(O)Cc1ccccc1Nc1c(Cl)cccc1Cl` [Diclofenac, reference compound], for which the “% Inhibition of LTB4” value in test [1] (10 mg/kg p.o.) was 0%.

Take `Cc1oc(-c2ccccc2)nc1CCOc1cccc(CN(O)C(N)=O)c1` [Example 2, 1-Hydroxy-1-[3-[2-(5-methyl-2-phenyl-oxazol-4-yl)-ethoxy]-benzyl]-urea]: the “% Inhibition of LTB4” value in test [2] (dose 25 (mg/kg)) was 21%. Also, testing at 1 µM in test [3] gave an inhibition of 51%. The “% Inhibition LTB4 Synthesis” value in test [1] is reported as 53%.

On to `COc1ccc(-c2nc(CCOc3ccc(CN(O)C(N)=O)cc3)c(C)o2)cc1` [Example 3, 1-Hydroxy-1-[4-[2-[2-(4-methoxy-phenyl)-5-methyl-oxazol-4-yl]-ethoxy]benzyl]-urea], for which, in test [2] (dose 25 (mg/kg)), the “% Inhibition of LTB4” value was 32%. In test [3], this molecule displayed an inhibition at 1 µM of 57%.

In test [3], `Cc1oc(-c2ccccc2)nc1CCOc1cccc(C(C)N(O)C(N)=O)c1` (centres unmarked) [Example 5, 1-Hydroxy-1-[1-[3-[2-(5-methyl-2-phenyl-oxazol-4-yl)-ethoxy]-phenyl]ethyl]-urea] gave an inhibition at 1 µM of 34%.

In the case of `Cc1oc(-c2ccccc2F)nc1CCOc1ccc(CN(O)C(N)=O)cc1` [Example 6, 1-[4-[2-[2-(2-Fluoro-phenyl)-5-methyl-oxazol-4-yl]-ethoxy]-benzyl]-1-hydroxy-urea], the “% Inhibition of LTB4” value in test [2] (dose 10 (mg/kg)) is reported as 71%. The molecule further showed an inhibition at 1 µM in test [3] of 54%. Further, the “% Inhibition LTB4 Synthesis” value in test [1] stood at 48%.

On to `Cc1oc(-c2ccc(F)cc2)nc1CCOc1ccc(CN(O)C(N)=O)cc1` [Example 8, 1-[4-[2-[2-(4-Fluoro-phenyl)-5-methyl-oxazol-4-yl)-ethoxy]-benzyl]-1-hydroxy-urea], for which the “% Inhibition of LTB4” value in test [2] (dose 10 (mg/kg)) amounted to 66%. For the same molecule, testing at 1 µM in test [3] gave an inhibition of 70%.

In test [3], `Cc1cc(OCCc2nc(-c3ccccc3)oc2C)cc(C)c1CN(O)C(N)=O` [Example 9, 1-[2,6-Dimethyl-4-[2-(5-methyl-2-phenyl-oxazol-4-yl)-ethoxy]-benzyl]-1-hydroxy-urea] showed an inhibition at 10 µM of 42%.

On to `Cc1ccc(-c2nc(CCOc3ccc(CN(O)C(N)=O)cc3)c(C)o2)cc1` [Example 11, 1-Hydroxy-1-[4-[2-(5-methyl-2-(p-tolyl)-oxazol-4-yl]-ethoxy]-benzyl]-urea], for which the inhibition at 1 µM in test [3] came to 40%.

Molecule `Cc1oc(-c2ccc(C(F)(F)F)cc2)nc1CCOc1ccc(CN(O)C(N)=O)cc1F` [Example 14] registered an inhibition at 1 µM in test [3] of 36%.

In test [3], `Cc1oc(-c2ccc(C(F)(F)F)cc2)nc1CCOc1c(Cl)cc(CN(O)C(N)=O)cc1Cl` [Example 15, 1-[3,5-Dichloro-4-[2-[5-methyl-2-(4-trifluoromethyl-phenyl)-oxazol-4-yl]ethoxy]-benzyl]-1-hydroxy-urea] had an inhibition at 1 µM of 38%.

As to `Cc1oc(-c2ccc(SC(F)(F)F)cc2)nc1CCOc1ccc(CN(O)C(N)=O)cc1` [Example 16, 1-Hydroxy-1-[4-[2-[5-methyl-2-(4-trifluoromethylsulfanyl-phenyl)-oxazol-4yl]-ethoxy]-benzyl]-urea], the inhibition at 1 µM in test [3] worked out at 50%.

Take `NC(=O)N(O)Cc1ccc(OCCc2csc(-c3ccccc3)n2)cc1` [Example 17, 1-Hydroxy-1-[4-[2-(2-phenyl-thiazol-4-yl)-ethoxy]-benzyl]-urea]: the inhibition at 10 µM in test [3] is 93%.

As to `NC(=S)N(O)Cc1ccc(OCCc2csc(-c3ccccc3)n2)cc1` [Example 18], in test [3], the inhibition at 10 µM is 94%.

The molecule `NC(=O)N(O)Cc1cccc(OCCc2csc(-c3ccc(C(F)(F)F)cc3)n2)c1` [Example 20, 1-Hydroxy-1-[3-[2-[2-(4-trifluoromethyl-phenyl)-thiazol-4-yl]-ethoxy]-benzyl]-urea] came in with an inhibition at 1 µM in test [3] of 30%.

In test [3], `CN(CCOc1ccc(CN(O)C(N)=O)cc1)c1nc2ccccc2o1` [Example 22, 1-[4-[2-(-Benzoxazol-2-yl-methyl-amino)-ethoxy]-benzyl]-1-hydroxy-urea] displayed an inhibition at 10 µM of 60%.

Take `CC(=O)N(O)Cc1ccc(OCCN(C)c2nc3ccccc3o2)cc1` [Example 23, N-[4-[2-(Benzoxazol-2-yl-methyl-amino)-ethoxy]-benzyl]-N-hydroxy-acetamide]: the “% Inhibition of LTB4” value in test [2] (dose 25 (mg/kg)) is listed as 78%. In addition, testing at 1 µM in test [3] gave an inhibition of 39%.

Regarding `COC(=O)N(O)Cc1ccc(OCCN(C)c2nc3ccccc3o2)cc1` [Example 24], in test [3], the inhibition at 10 µM was determined as 77%.

For the molecule `COc1ccc2c(c1)c(CC(=O)O)c(C)n2C(=O)c1ccc(Cl)cc1` [Indomethacin, reference compound], the “% Inhibition of LTB4” value in test [1] (4 mg/kg p.o.) was found to be 12%.

For the molecule `CC(C(=O)O)c1cccc(C(=O)c2ccccc2)c1` (centres unmarked) [Ketoprofen, reference compound], the “% Inhibition of LTB4” value in test [1] (10 mg/kg p.o.) stood at 35%.

Take `COc1ccc2cc([C@H](C)C(=O)O)ccc2c1` [Naproxen, reference compound]: in test [1] (4 mg/kg p.o.), the “% Inhibition of LTB4” value is recorded as 0%.

As for `O=C1CCN(c2ccccc2)N1` [Phenidone, reference compound], the ED50 in test [1] turned out to be 10 mg/kg.
